# Values of other authors in patent US5981529A, “Substituted indolylpropyl-piperazine derivatives as 5-HT1D α agonists” (Merck Sharp & Dohme Limited, priority 1995, dated 1999).
# How the values were obtained:
# [1] = therapeutic doses
# [2] = tested on: human 5-HT1Dα and 5-HT1Dβ receptor subtypes; settings: cf. WO-A-91/17174, Table 1
smiles,measurement,setting,value
CNS(=O)(=O)Cc1ccc2[nH]cc(CCN(C)C)c2c1 [sumatriptan],adverse events on administration to humans,[1],certain adverse cardiovascular events
same,discrimination between the human 5-HT1Dα and 5-HT1Dβ receptor subtypes,[2],barely discriminates between the human 5-HT1Dα and 5-HT1Dβ receptor subtypes
